Legend:
[1] = tested on: HeLa; test: cells; conditions: Homo sapiens, 48 h
Description: Antiproliferative activity against human HeLa cells after 48 hrs by MTS assay

[2] = tested on: A549; test: Antiproliferative activity against human A549 cells after 48 hrs by MTS assay; assay type: functional, cell-based; conditions: A549, 48 h
[3] = target: T1, Dihydrofolate reductase (Homo sapiens, UniProt P00374); test: Inhibition of recombinant human DHFR using dihydrofolate as substrate after 15 mins in presence of NADPH
T1 sequence (P00374 whole entry): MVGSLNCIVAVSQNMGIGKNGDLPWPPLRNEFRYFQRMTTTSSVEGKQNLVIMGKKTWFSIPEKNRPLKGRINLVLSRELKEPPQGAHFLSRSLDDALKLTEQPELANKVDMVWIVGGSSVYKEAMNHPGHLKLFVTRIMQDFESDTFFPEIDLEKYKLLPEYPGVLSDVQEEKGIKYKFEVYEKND

[4] = tested on: HL-60; test: Antiproliferative activity against human HL60 cells after 48 hrs by MTS assay; assay type: functional, cell-based; conditions: HL-60, 48 h
[5] = tested on: NCI-H1299; test: Antiproliferative activity against human NCI-H1299 cells after 48 hrs by MTS assay; assay type: functional, cell-based; conditions: NCI-H1299, 48 h
[6] = tested on: HL-60; test: Cell cycle arrest in human HL60 cells assessed as S phase at 0.2 uM after 24 hrs by propidium iodide staining based flow cytometry (reference value: 58.7 +/- 0.8%); assay type: functional
[7] = tested on: HL-60; test: Cell cycle arrest in human HL60 cells assessed as G1 phase at 0.1 uM after 24 hrs by propidium iodide staining based flow cytometry (reference value: 29.1 +/- 0.5%); assay type: functional
[8] = tested on: HL-60; test: Cell cycle arrest in human HL60 cells assessed as S phase at 0.1 uM after 24 hrs by propidium iodide staining based flow cytometry (reference value: 58.7 +/- 0.8%); assay type: functional
[9] = tested on: HL-60; test: Cell cycle arrest in human HL60 cells assessed as G2/M phase at 0.1 uM after 24 hrs by propidium iodide staining based flow cytometry (reference value: 12.2 +/- 1.1%); assay type: functional
[10] = tested on: HL-60; test: Cell cycle arrest in human HL60 cells assessed as G1 phase at 0.2 uM after 24 hrs by propidium iodide staining based flow cytometry (reference value: 29.1 +/- 0.5%); assay type: functional
[11] = tested on: HL-60; test: Cell cycle arrest in human HL60 cells assessed as G2/M phase at 0.05 uM after 24 hrs by propidium iodide staining based flow cytometry (reference value: 12.2 +/- 1.1%); assay type: functional
[12] = tested on: HL-60; test: Cell cycle arrest in human HL60 cells assessed as S phase at 0.4 uM after 24 hrs by propidium iodide staining based flow cytometry (reference value: 58.7 +/- 0.8%); assay type: functional
[13] = tested on: HL-60; test: Cell cycle arrest in human HL60 cells assessed as G1 phase at 0.05 uM after 24 hrs by propidium iodide staining based flow cytometry (reference value: 29.1 +/- 0.5%); assay type: functional
[14] = tested on: HL-60; test: Cell cycle arrest in human HL60 cells assessed as G1 phase at 0.8 uM after 24 hrs by propidium iodide staining based flow cytometry (reference value: 29.1 +/- 0.5%); assay type: functional
[15] = tested on: HL-60; test: Cell cycle arrest in human HL60 cells assessed as S phase at 0.05 uM after 24 hrs by propidium iodide staining based flow cytometry (reference value: 58.7 +/- 0.8%); assay type: functional
[16] = tested on: HL-60; test: Cell cycle arrest in human HL60 cells assessed as G1 phase at 0.4 uM after 24 hrs by propidium iodide staining based flow cytometry (reference value: 29.1 +/- 0.5%); assay type: functional
[17] = tested on: HL-60; test: Cell cycle arrest in human HL60 cells assessed as G2/M phase at 0.8 uM after 24 hrs by propidium iodide staining based flow cytometry (reference value: 12.2 +/- 1.1%); assay type: functional
[18] = tested on: HL-60; test: Cell cycle arrest in human HL60 cells assessed as G2/M phase at 0.2 uM after 24 hrs by propidium iodide staining based flow cytometry (reference value: 12.2 +/- 1.1%); assay type: functional
[19] = tested on: HL-60; test: Cell cycle arrest in human HL60 cells assessed as G2/M phase at 0.4 uM after 24 hrs by propidium iodide staining based flow cytometry (reference value: 12.2 +/- 1.1%); assay type: functional
[20] = tested on: HL-60; test: Cell cycle arrest in human HL60 cells assessed as S phase at 0.8 uM after 24 hrs by propidium iodide staining based flow cytometry (reference value: 58.7 +/- 0.8%); assay type: functional

SMILES	IC50 [1]	IC50 [2]	IC50 [3]	IC50 [4]	IC50 [5]	other results
Nc1nc(N)c2nc(CCc3ccc(Br)cc3)ccc2n1	4.3 µM	22.6 µM	1.26 µM	0.12 µM	1.49 µM	–
COc1cccc(CCc2ccc3nc(N)nc(N)c3n2)c1	14.3 µM	14.4 µM	0.45 µM	0.42 µM	7.03 µM	–
Nc1nc(N)c2nc(/C=C/c3ccc(Cl)cc3)ccc2n1	7.6 µM	8.17 µM	16.9 µM	3.8 µM	9.39 µM	–
Nc1nc(N)c2nc(CCc3ccccc3)ccc2n1	8.61 µM	9.78 µM	2.25 µM	0.36 µM	9.16 µM	–
Nc1nc(N)c2nc(/C=C/c3ccccc3)ccc2n1	13.4 µM	13.9 µM	5.33 µM	3.85 µM	15.2 µM	–
CC(C)c1ccc(CCc2ccc3nc(N)nc(N)c3n2)cc1	14 µM	15.9 µM	19 µM	0.49 µM	–	–
Nc1nc(N)c2nc(/C=C/c3ccc(Br)cc3)ccc2n1	9.2 µM	11.9 µM	14.8 µM	2.51 µM	6.19 µM	–
COc1cc(CCc2ccc3nc(N)nc(N)c3n2)cc(OC)c1OC	2.9 µM	11.6 µM	0.29 µM	0.42 µM	2.17 µM	Activity [6]: 73.2%; Activity [7]: 25.7%; Activity [8]: 64.3%; Activity [9]: 10%; Activity [10]: 20.2%; Activity [11]: 10.7%; Activity [12]: 77.6%; Activity [13]: 26.3%; Activity [14]: 10%; Activity [15]: 63%; Activity [16]: 18%; Activity [17]: 1.5%; Activity [18]: 6.6%; Activity [19]: 4.4%; Activity [20]: 88.5%
COc1ccccc1/C=C/c1ccc2nc(N)nc(N)c2n1	13.8 µM	7.56 µM	3.61 µM	3.6 µM	8.63 µM	–
CCc1ccc(/C=C/c2ccc3nc(N)nc(N)c3n2)cc1	9.86 µM	9.13 µM	5.28 µM	1.19 µM	4.86 µM	–
Cc1ccc(CCc2ccc3nc(N)nc(N)c3n2)cc1	52.4 µM	34.1 µM	2.55 µM	0.31 µM	1.61 µM	–
Nc1nc(N)c2nc(CCc3ccc(Cl)cc3)ccc2n1	5.3 µM	16.3 µM	2.84 µM	0.27 µM	1.06 µM	–
Nc1nc(N)c2nc(/C=C/c3ccc(F)cc3)ccc2n1	7.98 µM	6.78 µM	4.78 µM	2.61 µM	5.99 µM	–
COc1cc(/C=C/c2ccc3nc(N)nc(N)c3n2)cc(OC)c1OC	2.1 µM	5.34 µM	4 µM	2.33 µM	3.99 µM	–
COc1ccc(CCc2ccc3nc(N)nc(N)c3n2)cc1	10.5 µM	18 µM	0.71 µM	0.072 µM	2.15 µM	–
Cc1ccc(/C=C/c2ccc3nc(N)nc(N)c3n2)cc1	14.5 µM	18.9 µM	3.19 µM	4.54 µM	–	–
COc1cccc(/C=C/c2ccc3nc(N)nc(N)c3n2)c1	18.8 µM	9.1 µM	4.13 µM	2.03 µM	12.2 µM	–
Nc1nc(N)c2nc(CCc3ccc(F)cc3)ccc2n1	54 µM	4.98 µM	0.95 µM	0.58 µM	14.8 µM	–
COc1ccc(/C=C/c2ccc3nc(N)nc(N)c3n2)cc1	6.5 µM	5.68 µM	4.34 µM	1.63 µM	3.73 µM	–
COc1ccccc1CCc1ccc2nc(N)nc(N)c2n1	10.4 µM	29.9 µM	1.67 µM	0.8 µM	4.73 µM	–
CC(C)c1ccc(/C=C/c2ccc3nc(N)nc(N)c3n2)cc1	10.5 µM	10.7 µM	20.1 µM	1.04 µM	11.2 µM	–
CCc1ccc(CCc2ccc3nc(N)nc(N)c3n2)cc1	49.4 µM	15.4 µM	2.48 µM	0.21 µM	2.76 µM	–
O=c1[nH]cc(F)c(=O)[nH]1 [FLUOROURACIL]	62.2 µM	–	–	1.62 µM	8.91 µM	–
